Key:
[1] = molecular target: Rho-associated protein kinase 1 (Homo sapiens) (UniProt Q13464); experiment: Inhibition of ROCK1 in human PC3 cell lysates at 10 uM using desthiobiotin-tagged ATP probe AX9989 followed by trypsinization by LC/MS analysis; settings: PC-3
[2] = molecular target: Tyrosine-protein kinase Fyn (Homo sapiens) (UniProt P06241); experiment: Inhibition of FYN in human PC3 cell lysates at 10 uM using desthiobiotin-tagged ATP probe AX9989 followed by trypsinization by LC/MS analysis; settings: PC-3
[3] = molecular target: Serine/threonine-protein kinase 26 (Homo sapiens) (UniProt Q9P289); experiment: Inhibition of MST4 in human PC3 cell lysates at 10 uM using desthiobiotin-tagged ATP probe AX9989 followed by trypsinization by LC/MS analysis; settings: PC-3
[4] = molecular target: Ribosomal protein S6 kinase beta-2 (Homo sapiens) (UniProt Q9UBS0); experiment: Inhibition of p70S6Kbeta in human PC3 cell lysates at 10 uM using desthiobiotin-tagged ATP probe AX9989 followed by trypsinization by LC/MS analysis; settings: PC-3
[5] = molecular target: T1, EKC/KEOPS complex subunit TP53RK (Homo sapiens) (UniProt Q96S44); experiment: Inhibition of PRPK in human PC3 cell lysates at 10 uM using desthiobiotin-tagged ATP probe AX9989 followed by trypsinization by LC/MS analysis; settings: PC-3
T1 sequence (whole entry): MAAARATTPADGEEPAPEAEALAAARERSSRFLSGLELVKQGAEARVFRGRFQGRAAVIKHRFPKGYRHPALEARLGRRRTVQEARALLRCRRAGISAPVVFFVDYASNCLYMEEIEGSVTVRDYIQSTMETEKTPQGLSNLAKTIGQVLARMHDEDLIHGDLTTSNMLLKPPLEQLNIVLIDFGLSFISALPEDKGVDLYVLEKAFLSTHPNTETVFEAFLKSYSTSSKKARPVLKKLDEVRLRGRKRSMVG

[6] = tested on: PC-3; experiment: Inhibition of KHS1 in human PC3 cell lysates at 10 uM using desthiobiotin-tagged ATP probe AX9989 followed by trypsinization by LC/MS analysis; assay type: cell-free
[7] = molecular target: T2, Serine/threonine-protein kinase STK11 (Homo sapiens) (UniProt Q15831); experiment: Inhibition of LKB1 in human PC3 cell lysates at 10 uM using desthiobiotin-tagged ATP probe AX9989 followed by trypsinization by LC/MS analysis; settings: PC-3
T2 sequence (whole entry): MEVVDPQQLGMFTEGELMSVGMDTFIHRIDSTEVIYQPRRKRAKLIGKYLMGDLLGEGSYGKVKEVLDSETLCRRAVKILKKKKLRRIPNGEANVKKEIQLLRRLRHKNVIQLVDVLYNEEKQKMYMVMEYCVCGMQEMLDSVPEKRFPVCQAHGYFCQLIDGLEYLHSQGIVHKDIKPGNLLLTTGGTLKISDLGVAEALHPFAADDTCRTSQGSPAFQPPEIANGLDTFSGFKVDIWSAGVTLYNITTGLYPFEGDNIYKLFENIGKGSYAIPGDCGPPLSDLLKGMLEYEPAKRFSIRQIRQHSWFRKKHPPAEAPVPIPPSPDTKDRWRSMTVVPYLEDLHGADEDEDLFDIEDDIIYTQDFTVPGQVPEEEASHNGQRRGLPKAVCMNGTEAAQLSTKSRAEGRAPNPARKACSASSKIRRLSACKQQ

[8] = molecular target: Serine/threonine-protein kinase WNK4 (Homo sapiens) (UniProt Q96J92); experiment: Inhibition of Wnk4 in human PC3 cell lysates at 10 uM using desthiobiotin-tagged ATP probe AX9989 followed by trypsinization by LC/MS analysis; settings: PC-3
[9] = molecular target: T3, MAP/microtubule affinity-regulating kinase 4 (Homo sapiens) (UniProt Q96L34); experiment: Inhibition of MARK4 in human PC3 cell lysates at 10 uM using desthiobiotin-tagged ATP probe AX9989 followed by trypsinization by LC/MS analysis; settings: PC-3
T3 sequence (whole entry): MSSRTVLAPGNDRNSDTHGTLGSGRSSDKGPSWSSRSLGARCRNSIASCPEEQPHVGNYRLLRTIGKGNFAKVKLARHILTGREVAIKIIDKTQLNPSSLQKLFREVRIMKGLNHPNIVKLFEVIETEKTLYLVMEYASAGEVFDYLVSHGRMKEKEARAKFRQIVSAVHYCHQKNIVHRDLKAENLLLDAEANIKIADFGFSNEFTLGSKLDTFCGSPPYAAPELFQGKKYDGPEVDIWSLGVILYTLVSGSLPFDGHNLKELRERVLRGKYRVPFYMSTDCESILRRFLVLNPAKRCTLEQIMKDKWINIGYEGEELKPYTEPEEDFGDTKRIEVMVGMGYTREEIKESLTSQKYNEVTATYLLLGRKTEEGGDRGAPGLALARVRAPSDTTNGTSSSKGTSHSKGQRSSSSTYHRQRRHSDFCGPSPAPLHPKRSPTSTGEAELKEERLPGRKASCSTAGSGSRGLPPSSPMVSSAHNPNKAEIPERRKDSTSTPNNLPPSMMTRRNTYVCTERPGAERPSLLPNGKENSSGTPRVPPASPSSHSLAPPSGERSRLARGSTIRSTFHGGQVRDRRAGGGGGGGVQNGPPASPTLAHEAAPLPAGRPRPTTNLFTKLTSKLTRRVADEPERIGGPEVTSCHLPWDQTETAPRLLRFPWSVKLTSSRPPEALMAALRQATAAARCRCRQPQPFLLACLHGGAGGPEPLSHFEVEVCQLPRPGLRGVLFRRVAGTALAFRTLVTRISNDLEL

[10] = molecular target: T4, Phosphatidylinositol 5-phosphate 4-kinase type-2 gamma (Homo sapiens) (UniProt Q8TBX8); experiment: Inhibition of PIP4K2C in human PC3 cell lysates at 10 uM using desthiobiotin-tagged ATP probe AX9989 followed by trypsinization by LC/MS analysis; settings: PC-3
T4 sequence (whole entry): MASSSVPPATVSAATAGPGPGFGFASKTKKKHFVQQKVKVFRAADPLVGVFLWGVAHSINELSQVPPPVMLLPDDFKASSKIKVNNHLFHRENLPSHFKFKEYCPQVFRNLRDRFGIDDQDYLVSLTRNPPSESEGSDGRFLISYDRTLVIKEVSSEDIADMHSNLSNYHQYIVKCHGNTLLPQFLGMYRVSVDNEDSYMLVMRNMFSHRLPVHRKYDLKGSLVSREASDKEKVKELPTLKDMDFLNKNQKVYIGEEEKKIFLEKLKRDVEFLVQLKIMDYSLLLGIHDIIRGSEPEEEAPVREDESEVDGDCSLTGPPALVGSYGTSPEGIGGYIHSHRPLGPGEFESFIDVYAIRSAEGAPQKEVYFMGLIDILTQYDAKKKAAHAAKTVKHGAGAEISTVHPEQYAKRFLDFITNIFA

[11] = molecular target: Proto-oncogene tyrosine-protein kinase Src (Homo sapiens) (UniProt P12931); experiment: Inhibition of SRC in human PC3 cell lysates at 10 uM using desthiobiotin-tagged ATP probe AX9989 followed by trypsinization by LC/MS analysis; settings: PC-3
[12] = molecular target: Serine/threonine-protein kinase Chk2 (Homo sapiens) (UniProt O96017); experiment: Inhibition of CHK2 in human PC3 cell lysates at 10 uM using desthiobiotin-tagged ATP probe AX9989 followed by trypsinization by LC/MS analysis; settings: PC-3
Sequence of Serine/threonine-protein kinase Chk2 (Homo sapiens) (O96017 whole entry): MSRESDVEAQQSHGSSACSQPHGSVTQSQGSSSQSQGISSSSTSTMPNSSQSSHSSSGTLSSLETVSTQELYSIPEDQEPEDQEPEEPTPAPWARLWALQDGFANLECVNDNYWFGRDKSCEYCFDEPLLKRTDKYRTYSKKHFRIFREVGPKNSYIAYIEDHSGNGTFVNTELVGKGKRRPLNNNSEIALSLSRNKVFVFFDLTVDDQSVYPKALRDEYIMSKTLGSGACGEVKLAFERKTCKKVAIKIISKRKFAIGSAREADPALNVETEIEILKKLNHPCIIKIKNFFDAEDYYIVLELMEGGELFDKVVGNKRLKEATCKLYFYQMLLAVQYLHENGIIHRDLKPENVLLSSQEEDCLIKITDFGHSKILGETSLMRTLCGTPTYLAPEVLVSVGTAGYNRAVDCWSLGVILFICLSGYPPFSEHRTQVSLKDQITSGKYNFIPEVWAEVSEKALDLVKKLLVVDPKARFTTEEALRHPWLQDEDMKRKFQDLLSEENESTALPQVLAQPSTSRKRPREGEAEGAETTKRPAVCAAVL

Sequence of Serine/threonine-protein kinase 26 (Homo sapiens) (Q9P289 2-416 limits assumed): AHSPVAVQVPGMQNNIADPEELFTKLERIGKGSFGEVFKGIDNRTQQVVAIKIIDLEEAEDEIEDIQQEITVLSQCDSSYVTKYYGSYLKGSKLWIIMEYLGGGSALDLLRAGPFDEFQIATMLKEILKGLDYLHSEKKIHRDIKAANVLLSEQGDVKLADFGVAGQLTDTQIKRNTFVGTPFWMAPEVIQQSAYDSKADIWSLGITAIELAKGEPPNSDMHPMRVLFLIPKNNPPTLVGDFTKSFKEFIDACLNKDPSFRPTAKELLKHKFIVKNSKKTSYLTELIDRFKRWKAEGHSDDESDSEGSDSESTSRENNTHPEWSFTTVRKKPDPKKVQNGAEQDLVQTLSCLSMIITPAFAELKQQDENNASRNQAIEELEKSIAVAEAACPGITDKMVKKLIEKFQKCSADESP
Sequence of Serine/threonine-protein kinase WNK4 (Homo sapiens) (Q96J92 whole entry): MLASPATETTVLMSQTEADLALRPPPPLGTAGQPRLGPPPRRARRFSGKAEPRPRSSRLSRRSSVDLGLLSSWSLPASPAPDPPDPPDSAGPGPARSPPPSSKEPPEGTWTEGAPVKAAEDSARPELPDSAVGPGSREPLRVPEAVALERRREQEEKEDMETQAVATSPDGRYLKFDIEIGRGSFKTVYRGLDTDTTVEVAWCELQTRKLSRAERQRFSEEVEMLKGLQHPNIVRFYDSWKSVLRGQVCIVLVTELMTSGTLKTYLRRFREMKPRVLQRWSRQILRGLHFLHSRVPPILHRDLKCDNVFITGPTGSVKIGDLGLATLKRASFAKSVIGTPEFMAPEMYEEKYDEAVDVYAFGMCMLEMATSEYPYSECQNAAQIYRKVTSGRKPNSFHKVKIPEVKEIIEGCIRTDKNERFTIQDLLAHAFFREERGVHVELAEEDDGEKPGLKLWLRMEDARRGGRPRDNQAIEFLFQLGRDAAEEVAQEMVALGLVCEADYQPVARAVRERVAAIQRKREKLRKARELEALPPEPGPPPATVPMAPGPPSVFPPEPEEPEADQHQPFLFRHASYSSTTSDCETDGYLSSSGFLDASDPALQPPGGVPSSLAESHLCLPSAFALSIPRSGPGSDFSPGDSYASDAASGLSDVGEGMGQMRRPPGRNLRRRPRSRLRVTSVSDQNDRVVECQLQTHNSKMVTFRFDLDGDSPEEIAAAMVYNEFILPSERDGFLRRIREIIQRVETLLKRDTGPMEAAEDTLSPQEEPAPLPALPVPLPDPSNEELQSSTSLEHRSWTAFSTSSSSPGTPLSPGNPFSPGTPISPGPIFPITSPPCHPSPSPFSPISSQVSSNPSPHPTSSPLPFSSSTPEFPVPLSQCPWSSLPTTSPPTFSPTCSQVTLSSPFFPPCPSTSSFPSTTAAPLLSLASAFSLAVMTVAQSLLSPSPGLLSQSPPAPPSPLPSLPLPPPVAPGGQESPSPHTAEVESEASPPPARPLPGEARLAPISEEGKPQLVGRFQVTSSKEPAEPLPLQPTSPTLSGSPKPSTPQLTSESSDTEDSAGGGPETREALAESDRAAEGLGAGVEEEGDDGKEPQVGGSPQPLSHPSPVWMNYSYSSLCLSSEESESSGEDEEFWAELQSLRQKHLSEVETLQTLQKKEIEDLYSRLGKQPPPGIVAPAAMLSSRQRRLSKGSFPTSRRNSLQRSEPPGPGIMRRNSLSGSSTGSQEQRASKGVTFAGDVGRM
Sequence of Tyrosine-protein kinase Fyn (Homo sapiens) (P06241 2-537 limits assumed): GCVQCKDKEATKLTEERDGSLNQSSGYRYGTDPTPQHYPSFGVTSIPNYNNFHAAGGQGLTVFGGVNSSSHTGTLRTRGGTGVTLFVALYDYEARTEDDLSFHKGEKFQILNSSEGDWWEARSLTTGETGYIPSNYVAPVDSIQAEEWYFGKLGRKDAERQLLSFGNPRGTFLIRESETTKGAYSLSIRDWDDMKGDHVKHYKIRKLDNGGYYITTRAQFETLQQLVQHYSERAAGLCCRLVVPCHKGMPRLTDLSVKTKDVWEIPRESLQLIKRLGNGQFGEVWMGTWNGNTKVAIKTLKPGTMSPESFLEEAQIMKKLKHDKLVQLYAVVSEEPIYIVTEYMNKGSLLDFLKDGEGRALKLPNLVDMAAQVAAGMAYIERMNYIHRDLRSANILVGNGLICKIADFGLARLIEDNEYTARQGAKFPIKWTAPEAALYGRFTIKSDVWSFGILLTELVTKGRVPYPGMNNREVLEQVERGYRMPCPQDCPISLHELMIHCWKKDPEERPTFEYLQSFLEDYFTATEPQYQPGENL
Sequence of Rho-associated protein kinase 1 (Homo sapiens) (Q13464 2-1354 limits assumed): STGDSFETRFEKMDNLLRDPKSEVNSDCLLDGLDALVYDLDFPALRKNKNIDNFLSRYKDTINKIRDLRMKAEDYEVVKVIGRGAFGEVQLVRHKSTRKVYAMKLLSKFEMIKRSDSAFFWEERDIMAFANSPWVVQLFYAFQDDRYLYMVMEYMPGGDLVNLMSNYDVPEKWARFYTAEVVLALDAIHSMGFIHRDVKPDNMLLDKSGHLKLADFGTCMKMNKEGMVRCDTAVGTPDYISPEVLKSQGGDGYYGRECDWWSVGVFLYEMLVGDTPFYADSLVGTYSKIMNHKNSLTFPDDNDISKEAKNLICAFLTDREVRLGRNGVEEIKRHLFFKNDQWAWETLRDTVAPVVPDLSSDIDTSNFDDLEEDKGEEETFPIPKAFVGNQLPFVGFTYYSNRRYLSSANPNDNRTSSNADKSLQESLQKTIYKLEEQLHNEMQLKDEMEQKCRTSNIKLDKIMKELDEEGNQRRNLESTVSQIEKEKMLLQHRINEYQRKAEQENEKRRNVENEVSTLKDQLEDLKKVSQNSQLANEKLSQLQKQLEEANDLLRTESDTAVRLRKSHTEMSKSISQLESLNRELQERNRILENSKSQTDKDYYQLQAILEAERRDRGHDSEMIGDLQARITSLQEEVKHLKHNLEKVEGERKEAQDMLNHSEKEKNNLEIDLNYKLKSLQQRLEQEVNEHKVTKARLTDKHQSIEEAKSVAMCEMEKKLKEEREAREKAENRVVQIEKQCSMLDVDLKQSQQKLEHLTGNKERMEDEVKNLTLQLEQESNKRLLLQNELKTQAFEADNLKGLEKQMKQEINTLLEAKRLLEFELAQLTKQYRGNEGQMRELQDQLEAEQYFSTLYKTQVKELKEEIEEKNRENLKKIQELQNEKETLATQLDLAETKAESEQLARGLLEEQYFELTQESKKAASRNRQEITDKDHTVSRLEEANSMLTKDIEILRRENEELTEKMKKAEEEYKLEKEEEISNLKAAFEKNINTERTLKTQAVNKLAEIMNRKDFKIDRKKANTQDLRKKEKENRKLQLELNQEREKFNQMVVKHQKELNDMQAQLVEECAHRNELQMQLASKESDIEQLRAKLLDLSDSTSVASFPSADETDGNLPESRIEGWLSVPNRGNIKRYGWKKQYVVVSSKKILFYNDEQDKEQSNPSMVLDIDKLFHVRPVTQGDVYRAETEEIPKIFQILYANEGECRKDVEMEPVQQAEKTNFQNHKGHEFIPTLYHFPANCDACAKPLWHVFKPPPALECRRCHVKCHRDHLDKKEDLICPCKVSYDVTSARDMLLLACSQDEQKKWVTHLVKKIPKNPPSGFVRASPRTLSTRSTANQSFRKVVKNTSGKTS
Sequence of Proto-oncogene tyrosine-protein kinase Src (Homo sapiens) (P12931 2-536 limits assumed): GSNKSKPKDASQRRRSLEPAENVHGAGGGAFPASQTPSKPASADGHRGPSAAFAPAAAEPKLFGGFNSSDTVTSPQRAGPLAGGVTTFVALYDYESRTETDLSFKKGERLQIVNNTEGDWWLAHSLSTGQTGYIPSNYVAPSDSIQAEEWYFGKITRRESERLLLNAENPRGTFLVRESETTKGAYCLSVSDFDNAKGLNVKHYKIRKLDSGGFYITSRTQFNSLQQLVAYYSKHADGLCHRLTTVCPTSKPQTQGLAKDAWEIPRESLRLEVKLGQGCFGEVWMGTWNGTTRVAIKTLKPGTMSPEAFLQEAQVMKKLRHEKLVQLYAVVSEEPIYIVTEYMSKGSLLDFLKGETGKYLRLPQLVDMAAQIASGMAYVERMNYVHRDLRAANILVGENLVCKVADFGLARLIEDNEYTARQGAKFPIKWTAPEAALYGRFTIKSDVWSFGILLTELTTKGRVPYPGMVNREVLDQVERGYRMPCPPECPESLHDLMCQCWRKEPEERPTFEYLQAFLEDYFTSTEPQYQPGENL

| SMILES | inhibition [1] | inhibition [2] | inhibition [3] | inhibition [4] | inhibition [5] | inhibition [7] | inhibition [8] | inhibition [9] | inhibition [10] | inhibition [11] | inhibition [12] | inhibition [6] |
| --- | --- | --- | --- | --- | --- | --- | --- | --- | --- | --- | --- | --- |
| NC(=O)c1ccc2nc(N[C@H]3CC[C@H](O)CC3)c3nccn3c2c1 | < 35% | < 35% | < 35% | < 35% | < 35% | < 35% | < 35% | < 35% | 78.1% | < 35% | < 35% | < 35% |
| CCC[C@@H](NC(=O)c1ccc2nc(N[C@H]3CC[C@H](O)CC3)c3nccn3c2c1)c1ccccc1 | < 35% | < 35% | < 35% | < 35% | < 35% | < 35% | < 35% | < 35% | < 35% | < 35% | < 35% | < 35% |
| O=C(NC1(c2ccccc2)CC1)c1ccc2nc(N[C@H]3CC[C@H](O)CC3)c3nccn3c2c1 | < 35% | < 35% | < 35% | < 35% | < 35% | < 35% | < 35% | < 35% | < 35% | < 35% | < 35% | < 35% |
| CC[C@@H](NC(=O)c1ccc2nc(N[C@H]3CC[C@H](O)CC3)c3nccn3c2c1)c1ccccc1 | < 35% | < 35% | < 35% | < 35% | < 35% | < 35% | < 35% | < 35% | < 35% | < 35% | < 35% | < 35% |
| O=C(NC1(Cc2ccc(F)cc2)CC1)c1ccc2nc(N[C@H]3CC[C@H](O)CC3)c3nccn3c2c1 | < 35% | < 35% | < 35% | < 35% | < 35% | < 35% | < 35% | < 35% | < 35% | < 35% | < 35% | < 35% |
| O=C(NC1(c2ccc(F)cc2)CC1)c1ccc2nc(N[C@H]3CC[C@H](O)CC3)c3nccn3c2c1 | < 35% | < 35% | < 35% | < 35% | < 35% | < 35% | < 35% | < 35% | < 35% | < 35% | < 35% | < 35% |

Now from value to compound, other results behind:

| inhibition [1] | inhibition [2] | inhibition [3] | inhibition [4] | inhibition [5] | inhibition [7] | inhibition [8] | inhibition [9] | inhibition [10] | inhibition [11] | inhibition [12] | SMILES | inhibition [6] |
| --- | --- | --- | --- | --- | --- | --- | --- | --- | --- | --- | --- | --- |
| < 35% | < 35% | < 35% | < 35% | < 35% | < 35% | < 35% | < 35% | 44.5% | < 35% | < 35% | O=C(N[C@H](CO)c1ccccc1)c1ccc2nc(N[C@H]3CC[C@H](O)CC3)c3nccn3c2c1 | < 35% |
| < 35% | < 35% | < 35% | < 35% | < 35% | < 35% | < 35% | < 35% | < 35% | < 35% | < 35% | CC(C)(NC(=O)c1ccc2nc(N[C@H]3CC[C@H](O)CC3)c3nccn3c2c1)c1ccccc1 | < 35% |
| < 35% | < 35% | < 35% | < 35% | < 35% | < 35% | < 35% | < 35% | 51% | < 35% | < 35% | C[C@@H](NC(=O)c1ccc2nc(N[C@H]3CC[C@H](O)CC3)c3nccn3c2c1)c1ccccc1 | < 35% |
| < 35% | < 35% | < 35% | < 35% | < 35% | < 35% | < 35% | < 35% | < 35% | < 35% | < 35% | C[C@H](NC(=O)c1ccc2nc(N[C@H]3CC[C@H](O)CC3)c3nccn3c2c1)c1ccccc1 | < 35% |
| < 35% | < 35% | < 35% | < 35% | < 35% | < 35% | < 35% | < 35% | < 35% | < 35% | < 35% | O=C(NC1(c2ccccc2)CCC1)c1ccc2nc(N[C@H]3CC[C@H](O)CC3)c3nccn3c2c1 | < 35% |
| < 35% | < 35% | < 35% | < 35% | 86.6% | < 35% | < 35% | < 35% | 90.1% | < 35% | < 35% | O=C(O)c1ccc2nc(N[C@H]3CC[C@H](O)CC3)c3nccn3c2c1 | < 35% |
